According to patent US20250129062A1, “AMORPHOUS SUBSTANCES, CRYSTALS, PHARMACEUTICAL COMPOSITIONS, PREPARATION METHODS AND USES OF THIOHYDANTOIN COMPOUND OR PHARMACEUTICALLY ACCEPTABLE SALT THEREOF” (SUZHOU KINTOR PHARMACEUTICALS, INC., priority 2021, published 2025):

Assay: Distribution of compound in sebaceous glands and blood of golden hamsters after single skin application
Assay type: in vivo
Details: golden hamsters, administration via skin application; listed as amorphous substance of the compound of formula I
Protocol: 6 male golden hamsters were selected for the experiment, and randomly divided evenly into 2 groups, with three golden hamsters per group. All animals were fasted overnight before administration, and were administered via a route of single application. Sampling was performed at specific time points after administration. Specific information on animal grouping, administration, sampling, etc. were detailed in Table 6.
The amorphous substance of the compound of formula I was weighed and placed in a 50 mL centrifugal tube. A mixed solvent (consisting of 75% v/v ethanol, 15% v/v glyceryl tri (2-ethylhexanoate) and 10% v/v glycerin) was added. After vortexing, heating was performed at 60° C. until the amorphous substance of the compound of formula I was completely dissolved. The amorphous substances of the compound of formula I in the two groups were prepared at 30 mg/mL and 100 mg/mL, respectively, and stored at room temperature in the dark.
After administration, blood was collected into blood collection tubes containing a heparin sodium anticoagulant at corresponding time points. Immediately after collection of whole blood, the blood collection tubes were gently shaken and placed on ice, and then centrifuged (4° C., 4000 rpm, 10 min). The supernatant plasma samples (plasma volume ≥100 μL) were collected, and stored in a refrigerator at about −80° C. The plasma samples were collected for 8 h for analysis.

Cc1ncsc1-c1ccc(CNC(=O)[C@@H]2C[C@@H](O)CN2C(=O)[C@@H](NC(=O)COCCCCOc2ccc(-c3ccc(N4C(=S)N(c5ccc(C#N)c(C(F)(F)F)c5F)C(=O)C4(C)C)cn3)cc2)C(C)(C)C)cc1
distribution between sebaceous glands and blood after skin application: can enter sebaceous glands but cannot enter blood
